# Test results reported in US20230138455A1, “METHODS OF DOSING OF APICAL SODIUM-DEPENDENT BILE ACID TRANSPORTER INHIBITORS (ASBTIs)” (Mirum Pharmaceuticals, Inc., priority 2021, published 2023).
# Where a name gives a salt, the structure may show the parent alone.
# Legend:
# [1] = Phase 1 clinical study, incidence of GI TEAEs after Maralixibat 30 mg in fed versus fasted state; format: in vivo, human; settings: healthy participants
# Protocol: (§1) FIG. 2 is pie charts showing the proportion of healthy participants who experienced gastrointestinal (GI) treatment-emergent adverse events (AEs) following ASBTI administration at mealtime versus in the fasted state for each of the three studies. […] In each clinical study, the ASBTI was administered in both a fed and fasted state, and rates of GI AEs were compared.
# [2] = Placebo-controlled trials in patients with ALGS, MRX dosed 30 mins prior to a meal, GI AE rates; format: in vivo, human; settings: PBO-controlled trials, dosed in the fasted state 30 mins prior to a meal (PBO 44.4%)
# Protocol: (§2) AE data from 3 separate phase 1 clinical studies on MRX and VLX in healthy participants were compiled to assess the impact of ASBTI dosing vs mealtime on GI AEs (Table 1, FIG. 1). In each clinical study, the ASBTI was administered in both a fed and fasted state, and rates of GI AEs were compared. Separately, AE data from placebo (PBO)-controlled trials in patients with ALGS, where MRX was dosed 30 mins prior to a meal, allows a comparison of GI AE rates for MRX vs PBO.
# [3] = Phase 1 clinical study, incidence of GI TEAEs after Maralixibat 10 mg in fed versus fasted state; format: in vivo, human; settings: healthy participants
# Protocol: as §1
# [4] = test system: fecal bile acid (fBA) excretion; test: Effect of maralixibat on fecal bile acid (fBA) excretion in healthy dogs, dosing time relative to mealtime; format: in vivo; settings: for increase in fBA excretion, change compared with pre-treatment value: day 7
# Protocol: FIG. 4 is a bar graph of the effect of maralixibat (MRX) on fecal bile acid (fBA) in dogs: change in fBA excretion from pre-treatment to day 7. The PD impact of ASBTI dosing time to mealtime was investigated in healthy dogs (FIG. 3). […] P<0.01 versus pre-treatment, by one-tail paired t-test. Data are presented as ±SEM (n = 7-8). % = change compared with pre-treatment value. Groups were dosed at the indicated times. Fecal samples were taken 48 hours before treatment initiation and for the last 72 hours of the 7-day treatment period and analyzed for bile acid content.
# [5] = Phase 1 clinical study, incidence of GI TEAEs after Volixibat 75 mg in fed versus fasted state; format: in vivo, human; settings: healthy participants
# Protocol: FIG. 1 depicts study designs, drugs (MRX = maralixibat, VLX = volixibat), doses and at mealtime/fasted timelines for certain embodiments according to the disclosure. *Fasting was started ≥10-12 hours before MRX dosing. ^‡Patients were randomized 1:1 to two cohorts and received sequentially fasted then at mealtime dosing, or at mealtime then fasted dosing.
# FIG. 2 is pie charts showing the proportion of healthy participants who experienced gastrointestinal (GI) treatment-emergent adverse events (AEs) following ASBTI administration at mealtime versus in the fasted state for each of the three studies.
# as §2
smiles,measurement,setting,value
"CCCCC1(CCCC)CS(=O)(=O)c2ccc(N(C)C)cc2[C@@H](c2ccc(OCc3ccc(C[N+]45CCN(CC4)CC5)cc3)cc2)[C@H]1O [Maralixibat, maralixibat]","Incidence of GI TEAEs: Abdominal pain, % of participants",[1]; Fasted (n=12),8%
same,"Incidence of GI TEAEs: Abdominal pain, number of participants",[1]; Fasted (n=12),1
same,"Incidence of GI TEAEs: Any GI TEAE, % of participants",[1]; Fasted (n=12),50%
same,"Incidence of GI TEAEs: Any GI TEAE, number of participants",[1]; Fasted (n=12),6
same,"Incidence of GI TEAEs: Diarrhea, % of participants",[1]; Fasted (n=12),50%
same,"Incidence of GI TEAEs: Diarrhea, number of participants",[1]; Fasted (n=12),6
same,"Incidence of GI TEAEs: Abdominal pain, % of participants",[1]; Fed (n=12),42%
same,"Incidence of GI TEAEs: Abdominal pain, number of participants",[1]; Fed (n=12),5
same,"Incidence of GI TEAEs: Anorectal discomfort, % of participants",[1]; Fed (n=12),8%
same,"Incidence of GI TEAEs: Anorectal discomfort, number of participants",[1]; Fed (n=12),1
same,"Incidence of GI TEAEs: Any GI TEAE, % of participants",[1]; Fed (n=12),100%
same,"Incidence of GI TEAEs: Any GI TEAE, number of participants",[1]; Fed (n=12),12
same,"Incidence of GI TEAEs: Diarrhea, % of participants",[1]; Fed (n=12),92%
same,"Incidence of GI TEAEs: Diarrhea, number of participants",[1]; Fed (n=12),11
same,"Incidence of GI TEAEs: Nausea, % of participants",[1]; Fed (n=12),25%
same,"Incidence of GI TEAEs: Nausea, number of participants",[1]; Fed (n=12),3
same,"diarrhea reported, frequency in patients",[2],43.6%
same,"Incidence of GI TEAEs: Any GI TEAE, % of participants",[3]; Fasted (n=6),0 (0%)
same,"Incidence of GI TEAEs: Any GI TEAE, number of participants",[3]; Fasted (n=6),0 (0%)
same,"Incidence of GI TEAEs: Any GI TEAE, % of participants",[3]; Fed (n=6),33%
same,"Incidence of GI TEAEs: Any GI TEAE, number of participants",[3]; Fed (n=6),2
same,"Incidence of GI TEAEs: Diarrhea, % of participants",[3]; Fed (n=6),17%
same,"Incidence of GI TEAEs: Diarrhea, number of participants",[3]; Fed (n=6),1
same,"Incidence of GI TEAEs: Nausea, % of participants",[3]; Fed (n=6),17%
same,"Incidence of GI TEAEs: Nausea, number of participants",[3]; Fed (n=6),1
same,"increase in fBA excretion, change compared with pre-treatment value",[4]; dosing 30 minutes prior to the meal,231%
same,"increase in fBA excretion, change compared with pre-treatment value",[4]; dosing 4 hours after the meal,229%
same,fBA excretion vs pretreatment baseline,"[4]; regardless of dosing time relative to the daily meal, p<0.01 by paired t-test",significantly increased fBA excretion
"CCCC[C@]1(CC)CS(=O)(=O)c2ccc(N(C)C)cc2[C@@H](c2cccc(NC(=O)N[C@@H]3O[C@H](COS(=O)(=O)O)[C@@H](O)[C@H](OCc4ccccc4)[C@H]3O)c2)[C@H]1O [Volixibat, (2R,3R,4S,5R,6R)-4-benzyloxy-6-{3-[3-((3S,4R,5R)-3-butyl-7-dimethylamino-3-ethyl-4-hydroxy-1,1-dioxo-2,3,4,5-tetrahydro-1H-benzo[b]thiepin-5-yl)-phenyl]-ureido}-3,5-dihydroxy-tetrahydro-pyran-2-ylmethyl) hydrogen sulfate]","Incidence of GI TEAEs: Any GI TEAE, % of participants",[5]; Fasted (n=8),0 (0%)
same,"Incidence of GI TEAEs: Any GI TEAE, number of participants",[5]; Fasted (n=8),0 (0%)
same,"Incidence of GI TEAEs: Any GI TEAE, % of participants",[5]; Fed (n=8),75%
same,"Incidence of GI TEAEs: Any GI TEAE, number of participants",[5]; Fed (n=8),6
same,"Incidence of GI TEAEs: Diarrhea, % of participants",[5]; Fed (n=8),50%
same,"Incidence of GI TEAEs: Diarrhea, number of participants",[5]; Fed (n=8),4
same,"Incidence of GI TEAEs: Loose stools, % of participants",[5]; Fed (n=8),25%
same,"Incidence of GI TEAEs: Loose stools, number of participants",[5]; Fed (n=8),2
